One may read the IC50 as the concentration at which inhibition is half-maximal. A lower IC50 goes with higher potency. Broadly, the IC90 is the concentration needed for an effect of 90%.

One data set relates to L6. Briefly: (§1) DNDI: Cytotoxicity against L-6 rat myoblasts from skeletal muscle cells. The following applies: L6 rat skeletal muscle myoblast cells.
Data set [1] can be described thus: as §1. As to conditions: L6 rat skeletal muscle myoblast cells.
Data set [2] relates to Trypanosoma cruzi. Briefly: microbe, parasite or virus in culture. In kind it is functional, organism-based, Tulahuen LacZ, Clone C4.
The test system of data set [3] is Trypanosoma cruzi. Briefly: microbe, parasite or virus in culture. In kind it is functional, Tulahuen LacZ, Clone C4.
[4] abbreviates: Trypanosoma cruzi, Tulahuen LacZ, Clone C4.

“And” between values parts separate entries of the source, which are not always exact repeats. Equal entries are not always repeated.

Consider `OC(c1ccc(Cl)cc1)(c1cccnc1)c1ccccc1Cl` (configuration not stated), for which the IC50 came out at 61300 nM in the data set with L6, 60000 nM in data set [1], 210 nM in the data set with Trypanosoma cruzi [2] and 270 nM in the data set on Trypanosoma cruzi [2] (setting [4]).

In the case of `CC(C)(C)C(=O)N1CCN(C(c2cccnc2)c2ccc(C(F)(F)F)cc2F)CC1` (configuration not stated), in the data set with Trypanosoma cruzi [3] (setting [4]), the 90% effect level (IC90) was put at 68.5 nM. In addition, the half-maximal inhibitory concentration (IC50) with L6 was found to be 72900 nM; in the data set on Trypanosoma cruzi [2] (setting [4]), 23.5 nM.

Consider `CS(=O)(=O)c1ccc(N2CCC(NC(c3cccnc3)c3ccc(Cl)cc3F)CC2)cc1` (configuration not stated), for which the IC90 worked out at 8 nM with Trypanosoma cruzi [3] and 7.5 nM in the data set with Trypanosoma cruzi [3] (setting [4]). Moreover, the concentration for half-maximal inhibition (IC50) was 26600 nM with L6; 49700 nM in data set [1] (IC50); 2.6 nM and 6 nM with Trypanosoma cruzi [2].

With `Fc1cc(Cl)ccc1C(NC1CCN(c2ccc(C(F)(F)F)cc2F)CC1)c1cccnc1` (configuration not stated), the concentration for an effect of 90% (IC90) with Trypanosoma cruzi [3] worked out at 31.5 nM; in the data set with Trypanosoma cruzi [3] (setting [4]), 24 nM. In addition, the IC50 was 53000 nM with L6; 51500 nM in data set [1] (IC50); 8 nM and 16.5 nM in the data set with Trypanosoma cruzi [2].

For `FC(F)(F)c1ccc(N2CCC(NC(c3ccc(Cl)cc3)c3cccnc3)CC2)cn1` (configuration not stated), the IC90 came to 16 nM in the data set with Trypanosoma cruzi [3] and 17.5 nM in the data set on Trypanosoma cruzi [3] (setting [4]). Further, the IC50 turned out to be 54400 nM in the data set with L6, 39600 nM in data set [1] (IC50), 6.6 nM in the data set with Trypanosoma cruzi [2] and 7 nM with Trypanosoma cruzi [2] (setting [4]).

Regarding `CC(C)CCON=C(Cc1cccnc1)c1ccc(Cl)cc1Cl`, the IC50 in the data set with L6 came out at 58700 nM; in data set [1] (IC50), 61000 nM.

The compound `Cc1noc(N2CCN(C(c3cccnc3)c3ccc(C(F)(F)F)cc3F)CC2)n1` (configuration not stated) returned an IC90 with Trypanosoma cruzi [3] (setting [4]) of 33 nM. The IC50 was determined as 51200 nM with L6 and 16.5 nM in the data set with Trypanosoma cruzi [2] (setting [4]).

Consider `CC(C)Oc1ccc(C(O)(c2ccc(Cl)cc2)c2cccnc2)cc1` (configuration not stated), for which the IC90 with Trypanosoma cruzi [3] was 18 nM and 6 nM. In addition, the IC50 in the data set on L6 was 56600 nM; in data set [1], 52000 nM; in the data set on Trypanosoma cruzi [2] it was 8.2 nM and 2 nM.

Turning to `O=C(NC1CCN(C(c2ccc(C(F)(F)F)cc2)c2cccnc2)CC1)c1c(F)cccc1F` (configuration not stated), the IC90 was found to be 37 nM with Trypanosoma cruzi [3] and 24 nM in the data set on Trypanosoma cruzi [3] (setting [4]). The half-maximal inhibitory concentration (IC50) in the data set on L6 was above 100000 nM; in data set [1] (IC50), 56700 nM; in the data set on Trypanosoma cruzi [2], 8.5 nM; with Trypanosoma cruzi [2] (setting [4]), 16.5 nM.

For the compound `N#Cc1cccc(N2CCC(NC(c3cccnc3)c3ccc(Cl)cc3F)CC2)c1` (configuration not stated), the 90% effect concentration (IC90) in the data set on Trypanosoma cruzi [3] amounted to 34 nM; in the data set on Trypanosoma cruzi [3] (setting [4]) it was 37 nM. Moreover, the 50% inhibitory concentration (IC50) came out at 32200 nM in the data set on L6, 55400 nM in data set [1] (IC50), 12.5 nM in the data set on Trypanosoma cruzi [2] and 21 nM in the data set on Trypanosoma cruzi [2] (setting [4]).

For the compound `OC(c1ccc(Cl)cc1)(c1cccnc1)c1cccs1` (configuration not stated), the IC90 in the data set on Trypanosoma cruzi [3] is 99 nM; in the data set with Trypanosoma cruzi [3] (setting [4]) it was 108 nM. The IC50 in the data set with L6 was 67700 nM; in data set [1] (IC50) it was above 100000 nM; in the data set on Trypanosoma cruzi [2] it was 17 nM; in the data set on Trypanosoma cruzi [2] (setting [4]), 13 nM.

On to `Fc1cc(Cl)ccc1C(NC1CCN(c2ccc(C(F)(F)F)cc2)CC1)c1cccnc1` (configuration not stated), for which the 90% effect concentration (IC90) with Trypanosoma cruzi [3] was 37.5 nM and 34 nM; in the data set on Trypanosoma cruzi [3] (setting [4]), 29.5 nM. In addition, the IC50 was 52400 nM with L6; 55700 nM in data set [1] (IC50); 11 nM and 10.5 nM with Trypanosoma cruzi [2]; 9.5 nM in the data set on Trypanosoma cruzi [2] (setting [4]).

`CS(=O)(=O)N1CCN(C(c2cccnc2)c2ccc(C(F)(F)F)cc2F)CC1` (configuration not stated) displayed an IC90 in the data set with Trypanosoma cruzi [3] (setting [4]) of 82.5 nM. Moreover, the results for the half-maximal inhibitory concentration (IC50) in the data set on L6 and in the data set with Trypanosoma cruzi [2] (setting [4]) were 76800 nM and 27.5 nM, respectively.

As for `CON=C(Cc1cccnc1)c1ccc(Cl)cc1Cl`, the IC50 with L6 was 81000 nM; in data set [1] (IC50), above 100000 nM; in the data set on Trypanosoma cruzi [2] it was 210 nM and 470 nM and 294 nM.

As to `N#Cc1ccc(C(O)(c2ccc(C(F)(F)F)cc2)c2cccnc2)c(F)c1` (configuration not stated), the concentration for an effect of 90% (IC90) in the data set on Trypanosoma cruzi [3] stood at 9.52 nM; in the data set on Trypanosoma cruzi [3] (setting [4]), 12.5 nM. In addition, the 50% inhibitory concentration (IC50) in the data set with L6 was 56100 nM; in data set [1] (IC50), 77200 nM; in the data set with Trypanosoma cruzi [2], 5.5 nM and 1.9 nM.

In the case of `FC(F)(F)c1ccc(N2CCC(NC(c3ccc(Cl)cc3)c3cccnc3)CC2)nc1` (configuration not stated), the 90% effect concentration (IC90) with Trypanosoma cruzi [3] was found to be 90 nM; with Trypanosoma cruzi [3] (setting [4]), 48 nM. For the same compound, the IC50 is 62500 nM in the data set on L6; 55300 nM in data set [1] (IC50); 19 nM and 46 nM with Trypanosoma cruzi [2].

In the case of `Cc1ccc(C(O)(c2ccc(Cl)cc2)c2cncnc2)cc1` (configuration not stated), the IC90 turned out to be 310 nM in the data set with Trypanosoma cruzi [3] and 158 nM in the data set on Trypanosoma cruzi [3] (setting [4]). Besides, the half-inhibitory concentration (IC50) in the data set on L6 was 67400 nM; in data set [1] (IC50), 79300 nM; in the data set on Trypanosoma cruzi [2], 68 nM and 23.8 nM.

The record behind these values is ChEMBL document CHEMBL1862790, “Optimisation of fenarimol series for the treatment of Chagas disease”.
